Assay results as given in patent publication US20100104628A1, “METHOD OF TREATING NEUROBLASTOMA” (priority 2007, published 2010).
Where two headings read alike, the source gives them in different places.

What was measured:
[1] = Stability / reaction kinetics by proton NMR (half-life); assay type: physicochemical
From the text: Proton NMR was used to determine the half-lives for chloro- and bromomethyl-MIBG (Table 1). These analogs react with nucleophiles via an SN2 mechanism; therefore, the rate of the reaction depends on the strength and concentration of the nucleophile as well as the nature of the leaving group. Thus, the half-lives of the analogs are predictably longer in buffer than they are in buffer with added glutathione (a relatively strong nucleophile) and, under the same conditions, the bromo analog (better leaving group) reacts faster than the chloro analog.

[2] = Maximum tolerated dose (MTD) study in mice; assay type: in vivo
Experimental: The MTD study utilized 4 groups of 5 HRLN female nu/nu mice. Mice in each group were injected i.v. with a single dose of chloromethyl-MIBG in 1% DMSO in water [5, 10, 15, or 20 mg/kg (drug/animal)]. Drug solutions were made fresh at room temperature and injections were completed within 20 minutes of making the drug solution (under these conditions, the half-life of chloromethyl-MIBG was estimated to be >10 hrs). The dosing volume was 0.20 mL/20 g mouse (adjusted accordingly for body weight). Animals were followed for 21 days post-injection; body weight was monitored daily for 5 days and then biweekly. The “endpoint MTD” was defined as a mean weight loss of >20% or death of >10% of animals in a group.

SK-N-MC (NET ++) = experiment: Cytotoxicity, MTT assay, SK-N-MC; assay type: cell-based; conditions: 24 hr assay, 1% EtOH
MCF7 (NET 0) = experiment: in vitro; assay type: cell-based, human
IMR32 (NET 0/+) = experiment: Cytotoxicity, MTT assay, IMR32; assay type: cell-based; conditions: 24 hr assay, 1% EtOH
SK—N-BE(2c) (high NET) = experiment: Glutathione depletion in vitro, SK-N-BE(2c); assay type: cell-based
Experimental: (§1) The NB cell line SK—N-BE(2c) (high net) was treated with MIBG, MIBG-disulfide dimer (MIGB-S—S-MIBG), chloromethyl-MIBG (cmMIBG), and BSO. For comparison, the human breast cancer line MCF7 (no NET) was treated with chloromethyl-MIBG and BSO. At specific times, intracellular glutathione in drug-treated cells was determined relative to that in untreated cells (control).
SK—N-BE(2c) (high NET) cells were treated with a single concentration of chloromethyl-MIBG (25 μM at t=0). Glutathione concentrations in treated and untreated cells were measured at t=0.5, 1, 2, 3 and 4 hrs. Glutathione levels in drug-treated cells progressively fell, with a concentration 50% that of control at t 4 hrs (FIG. 10B).
(§2) Cells were exposed to 5 μM chloromethyl-MIBG (cmMIBG), 25 μM BSO and a combination of 5 μM chloromethyl-MIBG+25 μM BSO (both) for 7 hrs. Compared to controls, chloromethyl-MIBG alone depleted glutathione by about 30% in SK—N—Be(2c) cells and 8% in MCF7. BSO, as expected, depleted MCF7 and SK—N—Be(2c) by similar amounts (42 and 54% of controls, respectively). In combination studies, chloromethyl-MIBG+BSO depleted levels by about 85% in the SK—N—Be(2c) cells and had much less effect on the MCF7 cells with glutathione reduced by 49% relative to controls.

NET = molecular target: T1, NET (Homo sapiens, UniProt P23975); experiment: NET competitive binding assay ([125I]MIBG displacement, SK-N-SH cells); conditions: 5 μM test compound, 2 hr incubation
T1 construct: endogenous in cells; host or cells: SK-N-SH neuroblastoma cells
Experimental: An assay to assess binding of various MIBG-analogs to the NET was performed by published methods (Vaidynathan et al, Nucl. Med. Commun. 25:947-955 (2004), Vaidynathan et al, Bioorg. Med. Chem. 12:1649-1656 (2004), Vaidynathan et al, Bioconjugate Chem. 12:798-806 (2001), Vaidynathan et al, Eur. J. Nucl. Med. Mol. Imaging 31:1362-1370 (2004)). In brief, neuroblastoma SK—N—SH cells (moderate levels of NET) were treated with [^125I]MIBG and with increasing concentrations of unlabeled MIBG or MIBG-analogs. At the end of a 2 hr incubation and appropriate work-up, the cell-bound radioactivity was counted. Total cell-bound radioactivity minus non-specific cell-bound radioactivity gave a value for specific binding which was plotted in FIG. 9 against the concentration of test compounds. At 5 μM, cold MIBG displaced “100%” of the labeled-MIBG (i.e., “zero” cell-bound radioactivity). At 5 μM, chloromethyl-MIBG displaced 83%; the disulfide MIBG-SS-ethyl and the ester MIBG-phenylbutyrate displaced 50-55%; and hydroxymethyl-MIBG displaced 27%.

MCF7 (no NET) = experiment: Glutathione depletion in vitro, MCF7; assay type: cell-based, human; conditions: 5 μM chloromethyl-MIBG, 7 hrs
Experimental: as §1, §2

SK-N-BE(2c) (NET ++++) = experiment: cells; assay type: cell-based
SK-N-SH (NET ++) = experiment: Cytotoxicity, MTT assay, SK-N-SH; assay type: cell-based; conditions: read-out: Cytotoxicity IC50
[3] = groups dosed at 10, 15 and 20 mg/kg i.v.
[4] = 24 hr assay, 1% EtOH, read-out: Cytotoxicity IC50
[5] = 24 hr assay, single agent, 1% DMSO, read-out: Cytotoxicity IC50
[6] = 48 hr assay (24 h exposure + 24 h recovery), Table 3, read-out: Cytotoxicity IC50
[7] = 48 hr assay, + 1.5 μM desipramine (40 min pre-treatment, then co-incubation), read-out: Cytotoxicity IC50, NET inhibition experiment
[8] = 48 hr assay, single agent, Table 4, read-out: Cytotoxicity IC50
[9] = 48 hr assay, without desipramine, read-out: Cytotoxicity IC50, NET inhibition experiment

T1 sequence (P23975 whole entry): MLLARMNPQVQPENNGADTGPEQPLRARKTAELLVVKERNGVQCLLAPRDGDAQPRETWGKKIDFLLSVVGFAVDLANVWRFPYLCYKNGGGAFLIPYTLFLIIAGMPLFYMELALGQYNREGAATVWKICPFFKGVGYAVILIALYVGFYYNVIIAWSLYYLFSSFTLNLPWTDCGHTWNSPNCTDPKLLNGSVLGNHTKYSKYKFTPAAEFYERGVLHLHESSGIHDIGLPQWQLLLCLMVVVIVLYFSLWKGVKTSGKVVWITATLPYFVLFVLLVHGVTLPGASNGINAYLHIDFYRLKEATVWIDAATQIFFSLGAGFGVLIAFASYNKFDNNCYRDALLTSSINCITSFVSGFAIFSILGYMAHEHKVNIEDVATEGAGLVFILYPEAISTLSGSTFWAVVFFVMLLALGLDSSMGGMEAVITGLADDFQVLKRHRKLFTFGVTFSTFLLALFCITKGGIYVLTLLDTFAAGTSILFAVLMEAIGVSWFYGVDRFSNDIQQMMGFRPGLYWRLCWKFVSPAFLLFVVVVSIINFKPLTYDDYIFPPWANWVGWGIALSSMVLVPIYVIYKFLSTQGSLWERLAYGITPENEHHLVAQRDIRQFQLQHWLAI

N=C(N)NCc1ccc(CCl)c(I)c1 [Chloromethyl-MIBG]
half-life of drug solution ([1]; 1% DMSO in water, room temperature, estimated): > 10 h | Half-life ([1]; 37° C., pH 7.4, BisTris buffer, 5% DMSO): 9.67 ± 0.417 h | Half-life w/10 eq GSH ([1]; 37° C., pH 7.4, BisTris buffer, 5% DMSO, 10 eq GSH): 50.6 ± 3.2 s | animal deaths over the course of the study ([2]; 5-20 mg/kg single i.v. dose, 21 days): no animal deaths | MTD ([2]; HRLN female nu/nu mice, single i.v. dose, 21 days follow-up): > 20 mg/kg | adverse signs upon drug injection [2, 3]: signs of hypoactivity, labored breathing, darkening of skin color, and/or seizures/tremors | time for adverse symptoms to go away [2, 3]: ≤ 30 s | IC50 (SK-N-MC (NET ++)): 25 µM | IC50 (MCF7 (NET 0); [4]): 50 µM | IC50 (MCF7 (NET 0); [5]): 56.9 ± 6.2 µM | IC50 (MCF7 (NET 0); [6]): 14.3 ± 2.13 µM | IC50 (MCF7 (NET 0); [7]): 20.2 ± 1.9 µM | IC50 (MCF7 (NET 0); [8]): 14.3 ± 2.1 µM | IC50 (MCF7 (NET 0); [9]): 19.8 ± 1.3 µM | IC50 (IMR32 (NET 0/+)): 63 µM | glutathione depletion compared to controls (SK—N-BE(2c) (high NET); 5 μM chloromethyl-MIBG, 7 hrs): about 30% | glutathione concentration relative to control (SK—N-BE(2c) (high NET); 25 μM at t=0, measured at 4 hrs): 50% | displacement of [125I]MIBG (specific cell-bound radioactivity) (NET): 83% | glutathione depletion compared to controls (MCF7 (no NET)): 8% | IC50 (SK-N-BE(2c) (NET ++++); [4]): 5 µM | IC50 (SK-N-BE(2c) (NET ++++); [5]): 5.7 ± 1.5 µM | IC50 (SK-N-BE(2c) (NET ++++); [6]): 4.63 ± 1.58 µM | IC50 (SK-N-BE(2c) (NET ++++); [7]): 14.3 ± 1.7 µM | IC50 (SK-N-BE(2c) (NET ++++); [8]): 4.6 ± 1.6 µM | IC50 (SK-N-BE(2c) (NET ++++); [9]): 3.2 ± 0.6 µM | increase in IC50 in presence of desipramine (SK-N-BE(2c) (NET ++++); with vs without desipramine): ~5 fold | IC50 (SK-N-SH (NET ++); 48 hr assay (24 h exposure + 24 h recovery), Table 3): 18.4 ± 9.1 µM | IC50 (SK-N-SH (NET ++); 48 hr assay, single agent, Table 4): 18.4 ± 9.1 µM
